Source: patent publication US20250230193A1, “CYCLIC COMPOUND HAVING SELECTIVE KRAS INHIBITORY EFFECT ON HRAS AND NRAS” (CHUGAI SEIYAKU KABUSHIKI KAISHA, priority 2022, published 2025)
*1 amine or outer side, *2 acyl side, *3 side chain or, on linkers, in order; H or OH if unused. Where a SMILES comes first, the peptide text is derived from it. Bridges are numbered along the chain shown (N, C = ends). [ ]: non-standard residue; d: D form. The star is where a group is joined. hPhe(3-Cl-4-CF3) = N[C@@H](CCc1ccc(C(F)(F)F)c(Cl)c1)C(=O)O; X10 = CCCN([C@@H](Cc1ccc(F)cc1)C(=O)[*:2])[*:1]; NMeGly(cPent) = CN[C@H](C(=O)O)C1CCCC1; NMeD = CN[C@@H](CC(=O)O)C(=O)O; NMeL = CN[C@@H](CC(C)C)C(=O)O; Morpholide = C1CN(*)CCO1; NMeA = CN[C@@H](C)C(=O)O; Ac5c = NC1(C(=O)O)CCCC1; Aze = O=C(O)[C@@H]1CCN1; Sar = CNCC(=O)O

What was measured:
[1] = molecular target: GDP-bound HRAS wild-type protein (Homo sapiens, UniProt P01112); assay: Binding to HRAS by surface plasmon resonance (SPR), Single Cycle Kinetics
Sequence of GDP-bound HRAS wild-type protein (P01112 whole entry): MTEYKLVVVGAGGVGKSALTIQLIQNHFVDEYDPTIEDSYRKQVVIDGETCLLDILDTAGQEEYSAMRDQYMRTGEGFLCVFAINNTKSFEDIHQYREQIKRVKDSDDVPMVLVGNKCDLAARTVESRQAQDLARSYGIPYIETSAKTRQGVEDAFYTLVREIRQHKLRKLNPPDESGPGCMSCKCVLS

[2] = molecular target: GDP-bound NRAS wild-type protein (Homo sapiens, UniProt P01111); assay: Binding to NRAS by surface plasmon resonance (SPR), Single Cycle Kinetics
Sequence of GDP-bound NRAS wild-type protein (P01111 whole entry): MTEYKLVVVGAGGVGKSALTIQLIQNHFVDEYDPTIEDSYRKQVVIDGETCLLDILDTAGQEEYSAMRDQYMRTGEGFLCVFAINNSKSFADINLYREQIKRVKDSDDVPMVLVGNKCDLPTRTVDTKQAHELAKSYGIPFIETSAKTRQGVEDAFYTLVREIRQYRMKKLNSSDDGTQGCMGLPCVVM

[3] = KD ratio, GDP-bound HRAS wild-type vs GDP-bound KRAS wild-type, SPR
[4] = KD ratio, GDP-bound NRAS wild-type vs GDP-bound KRAS wild-type, SPR
[5] = SPR, GDP-bound wild-type proteins

`CCC[C@H]1C(=O)N[C@@H]([C@@H](C)CC)C(=O)N(C)CC(=O)N(C)[C@H]2C/C=C\CCN(C2=O)[C@@H](Cc2ccc(C)cc2)C(=O)N(C)CC(=O)N[C@@H](CCc2cc(F)c(C(F)(F)F)c(F)c2)C(=O)N2C[C@H](C)C[C@H]2C(=O)N(C)C2(CCC2)C(=O)N(C)[C@@H](C2CCCC2)C(=O)N(C)[C@H](C(=O)N(C)C)CC(=O)N1C` [PP1799] was tested. Which “HRAS/KRAS (ratio of KD value for HRAS to KD value for KRAS)” value [1, 3] did it give?
Its value is “B (a compound having 3 or more and less than 10 is denoted as B)”.

What about the “NRAS/KRAS (ratio of KD value for NRAS to KD value for KRAS)” value [2, 4] of the same compound?
The value was “B (a compound having 3 or more and less than 10 is denoted as B)”.

What does the source list for `CC[C@H](C)[C@@H]1NC(=O)[C@H](CC(C)C)N(C)C(=O)C[C@@H](C(=O)N2CCOCC2)N(C)C(=O)[C@H](C2CCCC2)N(C)C(=O)C2(CCCC2)NC(=O)[C@@H]2C[C@H](O)CN2C(=O)[C@H](CCc2cc(F)c(C(F)(F)F)c(F)c2)NC(=O)CN(C)C(=O)[C@H](Cc2ccc(C(F)(F)F)cc2)N2CCCC[C@@H](C2=O)N(C)C(=O)CN(C)C1=O` [PP0556]?
HRAS/KRAS (ratio of KD value with respect to GDP-bound HRAS wild-type protein to KD value with respect to KRAS) ([1]; SPR): B (a compound having 3 or more and less than 10 is denoted as B); NRAS/KRAS (ratio of KD value with respect to GDP-bound NRAS wild-type protein to KD value with respect to KRAS) ([2]; SPR): C (A compound having a KD ratio of 0.1 or more and less than 3 is denoted as C)

How did the “HRAS/KRAS (ratio of KD value with respect to GDP-bound HRAS wild-type protein to KD value with respect to KRAS)” value ([1]; class symbols) turn out when `CCC[C@H]1C(=O)N[C@@H]([C@@H](C)CC)C(=O)N(C2CC2)CC(=O)N(C)[C@H]2C/C=C\CCN(C2=O)[C@@H](CC2CCC(F)(F)CC2)C(=O)N(C)CC(=O)N[C@@H](CCc2cc(F)c(C(F)(F)F)c(F)c2)C(=O)N2C[C@H](OCC)C[C@H]2C(=O)NC2(CC(C)(C)C2)C(=O)N(C)[C@@H](C2CCCC2)C(=O)N(C)[C@H](C(=O)N(C)C)CC(=O)N1C` [PP2566] was run?
The value was “B (a compound having 3 or more and less than 10 is denoted as B)”.

And the “NRAS/KRAS (ratio of KD value with respect to GDP-bound NRAS wild-type protein to KD value with respect to KRAS)” value ([2]; class symbols)?
Its value is “A (a compound having 10 or more and less than 20 is denoted as A)”.

`CCO[C@@H]1C[C@H]2C(=O)NC3(CC(C)(C)C3)C(=O)N(C)[C@@H](C3CCCC3)C(=O)N(C)[C@H](C(=O)N(C)C)CC(=O)N(C)[C@H]3CCCC/C=C/c4ccc(cc4)C[C@@H](C(=O)N(C)CC(=O)N[C@@H](CCc4cc(F)c(C(F)(F)F)c(F)c4)C(=O)N2C1)N1CC/C=C\C[C@@H](C1=O)N(C)C(=O)CN(C)C(=O)[C@H]([C@@H](C)CC)NC3=O` [PP1831] was tested. Which “HRAS/KRAS (ratio of KD value for HRAS to KD value for KRAS)” value [1, 3] did it give?
The value was “A (a compound having 10 or more and less than 20 is denoted as A)”.

And the “NRAS/KRAS (ratio of KD value for NRAS to KD value for KRAS)” value [2, 4]?
The value was “A (a compound having 10 or more and less than 20 is denoted as A)”.

Which “HRAS/KRAS (ratio of KD value with respect to GDP-bound HRAS wild-type protein to KD value with respect to KRAS)” value [1, 5] does the source give for `CCCO[C@@H]1C[C@H]2C(=O)NC3(CC(C)(C)C3)C(=O)N(C)[C@@H](C3CCCC3)C(=O)N(C)[C@H](C(=O)N3CCCCC3)CC(=O)N(C)[C@H]3CCCc4ccc(cc4)C[C@@H](C(=O)N(C)CC(=O)N[C@@H](CCc4ccc(C(F)(F)F)c(OC)c4)C(=O)N2C1)N1CC/C=C\C[C@@H](C1=O)N(C)C(=O)CN(C)C(=O)[C@H]([C@@H](C)CC)NC3=O` [PP3064] here?
Its value is “B (a compound having 3 or more and less than 10 is denoted as B)”.

And the “NRAS/KRAS (ratio of KD value with respect to GDP-bound NRAS wild-type protein to KD value with respect to KRAS)” value [2, 5]?
The value was “B (a compound having 3 or more and less than 10 is denoted as B)”.

`CCC[C@H]1C(=O)N[C@@H]([C@@H](C)CC)C(=O)N(C)CC(=O)N(C)[C@H]2C/C=C\CCN(C2=O)[C@@H](Cc2ccc(C(F)(F)F)cc2)C(=O)N(C)CC(=O)N[C@@H](CCc2ccc(C(F)(F)F)c(Cl)c2)C(=O)N2CCCCC[C@H]2C(=O)NC2(CC(C)(C)C2)C(=O)N(C)[C@@H](C(CC)CC)C(=O)N(C)[C@H](C(=O)N(C)C)CC(=O)N1C` [PP2964] was tested. Which “HRAS/KRAS (ratio of KD value with respect to GDP-bound HRAS wild-type protein to KD value with respect to KRAS)” value ([1]; class symbols) did it give?
Its value is “A (a compound having 10 or more and less than 20 is denoted as A)”.

And the “NRAS/KRAS (ratio of KD value with respect to GDP-bound NRAS wild-type protein to KD value with respect to KRAS)” value ([2]; class symbols)?
Its value is “AA (a compound having 20 or more is denoted as AA)”.

How did the “HRAS/KRAS (ratio of KD value with respect to GDP-bound HRAS wild-type protein to KD value with respect to KRAS)” value [1, 5] turn out when `CCC[C@H]1C(=O)N[C@@H](C2CCCC2)C(=O)N(C)CC(=O)N(C)[C@H]2C/C=C\CCN(C2=O)[C@@H](Cc2ccc(C(F)(F)F)cc2)C(=O)N(C)CC(=O)N[C@@H](CCc2ccc(C(F)(F)F)c(Cl)c2)C(=O)N2C[C@H](OCC)C[C@H]2C(=O)NC2(CC(C)(C)C2)C(=O)N(C)[C@@H](CC(C)(C)C)C(=O)N(C)[C@H](C(=O)N(C)C)CC(=O)N1C` [PP2971] was run?
The value was “A (a compound having 10 or more and less than 20 is denoted as A)”.

What about the “NRAS/KRAS (ratio of KD value with respect to GDP-bound NRAS wild-type protein to KD value with respect to KRAS)” value [2, 5] of the same compound?
Its value is “A (a compound having 10 or more and less than 20 is denoted as A)”.

Which “HRAS/KRAS (ratio of KD value with respect to HRAS to KD value with respect to KRAS)” value [1, 3] does the source give for `CCO[C@@H]1C[C@H]2C(=O)NC3(CCC3)C(=O)N(C)[C@@H](C3CCCC3)C(=O)N(C)[C@H](C(=O)N(C)C)CC(=O)N(C)[C@@H](CC)C(=O)N[C@@H]([C@@H](C)CC)C(=O)N(C)CC(=O)N(C)[C@H]3CCCCN(C3=O)[C@@H](Cc3ccc(C(F)(F)F)cc3)C(=O)N(C)CC(=O)N[C@@H](CCc3ccc4sccc4c3)C(=O)N2C1` [PP0887] here?
The value was “C (A compound having a KD ratio of 0.1 or more and less than 3 is denoted as C)”.

And the “NRAS/KRAS (ratio of KD value with respect to NRAS to KD value with respect to KRAS)” value [2, 4]?
The value was “C (A compound having a KD ratio of 0.1 or more and less than 3 is denoted as C)”.

`CCO[C@@H]1C[C@H]2C(=O)NC3(CC(C)(C)C3)C(=O)N(C)[C@@H](C3CCCC3)C(=O)N(C)[C@H](C(=O)N3CCCCC3)CC(=O)N(C)[C@@H](CC)C(=O)N[C@@H]([C@@H](C)CC)C(=O)N(C)CC(=O)N(C)[C@H]3C/C=C\CCN(C3=O)[C@@H](Cc3ccc(C(F)(F)F)cc3)C(=O)N(C)CC(=O)N[C@@H](CCc3cc(F)c(C(F)(F)F)c(F)c3)C(=O)N2C1` [PP1945] was tested. Which “HRAS/KRAS (ratio of KD value for HRAS to KD value for KRAS)” value [1, 3] did it give?
Its value is “A (a compound having 10 or more and less than 20 is denoted as A)”.

What about the “NRAS/KRAS (ratio of KD value for NRAS to KD value for KRAS)” value [2, 4] of the same compound?
Its value is “AA (a compound having 20 or more is denoted as AA)”.

Which “HRAS/KRAS (ratio of KD for GDP-bound HRAS wild-type to KD for KRAS)” value ([1]; SPR) does the source give for `CC[C@H](C)[C@@H]1NC(=O)[C@H](CC(C)C)N(C)C(=O)C[C@@H](C(=O)N2CCOCC2)N(C)C(=O)[C@H](C2CCCC2)N(C)C(=O)C2(CCCC2)NC(=O)[C@@H]2CCCN2C(=O)[C@H](CCc2ccc(C(F)(F)F)c(Cl)c2)NC(=O)CN(C)C(=O)[C@H](Cc2ccc(C)cc2)N2CCCC[C@@H](C2=O)N(C)C(=O)CN(C)C1=O` [PP0316] here?
Its value is “B (a compound having 3 or more and less than 10 is denoted as B)”.

And the “NRAS/KRAS (ratio of KD for GDP-bound NRAS wild-type to KD for KRAS)” value ([2]; SPR)?
The value was “C (A compound having a KD ratio of 0.1 or more and less than 3 is denoted as C)”.

For `CCCN1C(=O)[C@@H]2CCN2C(=O)[C@H](C)N(C)C(=O)[C@H]([C@@H](C)CC)NC(=O)[C@H](CC(C)C)N(C)C(=O)C[C@@H](C(=O)N2CCOCC2)N(C)C(=O)[C@H](C2CCCC2)N(C)C(=O)C2(CCCC2)NC(=O)[C@@H]2CCCN2C(=O)[C@H](CCc2ccc(C(F)(F)F)c(Cl)c2)NC(=O)CN(C)C(=O)[C@@H]1Cc1ccc(F)cc1` [PP0219] ([NMeL]I[NMeA][Aze][X10][Sar][hPhe(3-Cl-4-CF3)]P[Ac5c][NMeGly(cPent)][NMeD]-Morpholide; lactam N-11), which “HRAS/KRAS (ratio of KD for GDP-bound HRAS wild-type to KD for KRAS)” value ([1]; SPR) is on record?
The value was “B (a compound having 3 or more and less than 10 is denoted as B)”.

What about the “NRAS/KRAS (ratio of KD for GDP-bound NRAS wild-type to KD for KRAS)” value ([2]; SPR) of the same compound?
Its value is “C (A compound having a KD ratio of 0.1 or more and less than 3 is denoted as C)”.
